According to patent publication US20100035755A1, “METHOD OF CONTROLLING WEEDS IN A TURF GRASS BY USING SULFONYLUREA COMPOUNDS” (Moghu Research Center Ltd., priority 2008, published 2010):

Columns and labels:
Veronica officinalis = experiment: Weed spectrum, greenhouse pot test; format: in vivo; details: two weeks after application
Text: (§1) To a rectangular plastic pot (surface area of 300 cm^2) in which sandy loam and mixed top soil (Boo-Nong Top Soil No. 3, for horticultural use) are filled in 1:1 ratio, eight different kinds of weed seeds including Poa annua and Digitaria sanguinalis as poaceae weed, Cyperus amuricus as cyperaceae weeds and Trifolium repens, Kummerowia striata, fleabane, Veronica officinalis and Portulaca oleracea as broadleaf weeds were sewn (50 to 100 seeds per each weed). These weeds are representative examples of the weeds which typically thrive in a turf grass field.
(§2) The pot was kept in a greenhouse which was maintained at 25˜30° C. for daytime and 15˜25° C. for nighttime, respectively, and irrigation was carried out regularly. Fourteen days after seeding, when the turf grass and the weeds reached approximately at three-leaf stage, the weed seeds were again sewn in separate two pots or “Test chemical” and “Control chemical” were applied in the same manner as the method described above. In this regard, when plants were cultivated for two weeks and then the chemical application was carried out, it is designated as “post-emergence” treatment. On the other than, when the seeding was carried right before the chemical application, it is designated as “pre-emergence” treatment. Preparation of a chemical solution, application method, etc. are the same as above described for evaluation of turf grass selectivity. Two weeks after the chemical application, efficacy of the chemicals for each type of the weeds was evaluated (visual evaluation) based on 0 to 100 scale (i.e., 0 indicates no efficacy and 100 indicates complete weed control).

Portulaca oleracea = experiment: Weed spectrum, greenhouse pot test; format: in vivo; details: two weeks after application
Text: as §1, §2

Digitaria sanguinalis = experiment: Weed spectrum, greenhouse pot test; format: in vivo; details: two weeks after application
Text: as §1, §2

Cyperus amuricus = experiment: Weed spectrum, greenhouse pot test; format: in vivo; details: two weeks after application
Text: as §1, §2

Kentucky bluegrass = experiment: Turf grass selectivity, greenhouse pot test; format: in vivo, Poa pratensis
Text: (§3) Turf mats of Zoysia grass, bentgrass, Kentucky bluegrass, or perennial rye grass known as cool season turfgrass or western grass were purchased and cut into a piece having 10 cm×20 cm size. Then, each piece was transplanted in a rectangular plastic pot (surface area of 300 cm^2) in which sandy loam and mixed top soil (Boo-Nong Top Soil No. 3, for horticultural use) are filled in 1:1 ratio. After the transplantation, the grasses were cut once a week to maintain the blade height at 0.5-1.0 cm and cultivated for one month in a green house of which temperature was kept at 25˜30° C. for daytime and 15˜25° C. for nighttime, respectively. Then, the ‘test chemical’ of the above Examples 1 and 2 or ‘control chemical’ was applied thereto in an amount of 400, 200, 100, 50, 25, 12, 6, 3 g ai/ha. As a “control chemical”, pyrazolsulfuron ethyl wettable agent (manufactured by Dongbu Fine Chemicals; herein after, referred to as ‘control chemical No. 1’) and flazasulfuron (manufactured by Dongbu HiTek; herein after, referred to as ‘control chemical No. 2’), both sulfonylurea herbicides for a turf grass, were used. Application was carried out by using a track sprayer (R&D Sprayer, USA) equipped with Teejet 8002 nozzle (Spraying Systems Co., USA), and the application amount was adjusted to 2,000 L/ha, which is a typical application amount for a golf course in Korea. Application solution was prepared by diluting the “test chemical” or the “control chemical” with tap water. […] The test was repeated three times in a random arrangement and the results are given in average value of each test (see Table 2 below).

Zoysia japonica = experiment: Turf grass selectivity, greenhouse pot test; format: in vivo; details: Zoysia japonica
Text: as §3

Perennial rye grass = experiment: Turf grass selectivity, greenhouse pot test; format: in vivo
Text: as §3

Dandelion = experiment: Weed spectrum, greenhouse pot test; format: in vivo; details: two weeks after application

CCOC(=O)c1cnn(C)c1S(=O)(=O)NC(=O)Nc1nc(OC)cc(OC)n1 [Control chemical No. 1, Pyrazosulfuron ethyl, reference compound]
100: efficacy (0-100 scale) (Portulaca oleracea; Pre-emergence, 100 g ai/ha) | efficacy (0-100 scale) (Cyperus amuricus; Post-emergence, 100 g ai/ha) | efficacy (0-100 scale) (Cyperus amuricus; Pre-emergence, 50 g ai/ha) | efficacy (0-100 scale) (Cyperus amuricus; Pre-emergence, 100 g ai/ha) | efficacy (0-100 scale) (Dandelion; Post-emergence, 50 g ai/ha) | efficacy (0-100 scale) (Dandelion; Post-emergence, 100 g ai/ha) | efficacy (0-100 scale) (Dandelion; Pre-emergence, 100 g ai/ha)
50: efficacy (0-100 scale) (Digitaria sanguinalis; Pre-emergence, 100 g ai/ha) | efficacy (0-100 scale) (Cyperus amuricus; Post-emergence, 12 g ai/ha)
70: efficacy (0-100 scale) (Portulaca oleracea; Pre-emergence, 50 g ai/ha) | efficacy (0-100 scale) (Cyperus amuricus; Post-emergence, 25 g ai/ha) | efficacy (0-100 scale) (Cyperus amuricus; Pre-emergence, 12 g ai/ha) | efficacy (0-100 scale) (Dandelion; Pre-emergence, 12 g ai/ha)
1: phytotoxicity (visual assessment 0-10) (Kentucky bluegrass; 200 g ai/ha, 2 weeks) | phytotoxicity (visual assessment 0-10) (Kentucky bluegrass; 400 g ai/ha, 4 weeks) | phytotoxicity (visual assessment 0-10) (Perennial rye grass; 400 g ai/ha, 2 weeks)
2: phytotoxicity (visual assessment 0-10) (Kentucky bluegrass; 400 g ai/ha, 2 weeks)
30: efficacy (0-100 scale) (Veronica officinalis; Post-emergence, 50 g ai/ha) | efficacy (0-100 scale) (Veronica officinalis; Post-emergence, 100 g ai/ha) | efficacy (0-100 scale) (Veronica officinalis; Pre-emergence, 50 g ai/ha) | efficacy (0-100 scale) (Portulaca oleracea; Pre-emergence, 25 g ai/ha) | efficacy (0-100 scale) (Digitaria sanguinalis; Pre-emergence, 50 g ai/ha)
10: efficacy (0-100 scale) (Veronica officinalis; Post-emergence, 12 g ai/ha) | efficacy (0-100 scale) (Digitaria sanguinalis; Post-emergence, 100 g ai/ha) | efficacy (0-100 scale) (Digitaria sanguinalis; Pre-emergence, 25 g ai/ha)
90: efficacy (0-100 scale) (Dandelion; Post-emergence, 25 g ai/ha) | efficacy (0-100 scale) (Dandelion; Pre-emergence, 50 g ai/ha)
40: efficacy (0-100 scale) (Veronica officinalis; Pre-emergence, 100 g ai/ha) | efficacy (0-100 scale) (Portulaca oleracea; Post-emergence, 25 g ai/ha)
20: efficacy (0-100 scale) (Veronica officinalis; Post-emergence, 25 g ai/ha) | efficacy (0-100 scale) (Veronica officinalis; Pre-emergence, 25 g ai/ha) | efficacy (0-100 scale) (Portulaca oleracea; Post-emergence, 12 g ai/ha) | efficacy (0-100 scale) (Portulaca oleracea; Pre-emergence, 12 g ai/ha)
0: efficacy (0-100 scale) (Veronica officinalis; Pre-emergence, 12 g ai/ha) | efficacy (0-100 scale) (Digitaria sanguinalis; Post-emergence, 12 g ai/ha) | efficacy (0-100 scale) (Digitaria sanguinalis; Post-emergence, 25 g ai/ha) | efficacy (0-100 scale) (Digitaria sanguinalis; Post-emergence, 50 g ai/ha) | efficacy (0-100 scale) (Digitaria sanguinalis; Pre-emergence, 12 g ai/ha) | phytotoxicity (visual assessment 0-10) (Kentucky bluegrass; 3 g ai/ha, 2 weeks) | phytotoxicity (visual assessment 0-10) (Kentucky bluegrass; 3 g ai/ha, 4 weeks) | phytotoxicity (visual assessment 0-10) (Kentucky bluegrass; 6 g ai/ha, 2 weeks) | phytotoxicity (visual assessment 0-10) (Kentucky bluegrass; 6 g ai/ha, 4 weeks) | phytotoxicity (visual assessment 0-10) (Kentucky bluegrass; 12 g ai/ha, 2 weeks) | phytotoxicity (visual assessment 0-10) (Kentucky bluegrass; 12 g ai/ha, 4 weeks) | phytotoxicity (visual assessment 0-10) (Kentucky bluegrass; 25 g ai/ha, 2 weeks) | phytotoxicity (visual assessment 0-10) (Kentucky bluegrass; 25 g ai/ha, 4 weeks) | phytotoxicity (visual assessment 0-10) (Kentucky bluegrass; 50 g ai/ha, 2 weeks) | phytotoxicity (visual assessment 0-10) (Kentucky bluegrass; 50 g ai/ha, 4 weeks) | phytotoxicity (visual assessment 0-10) (Kentucky bluegrass; 100 g ai/ha, 2 weeks) | phytotoxicity (visual assessment 0-10) (Kentucky bluegrass; 100 g ai/ha, 4 weeks) | phytotoxicity (visual assessment 0-10) (Kentucky bluegrass; 200 g ai/ha, 4 weeks) | phytotoxicity (visual assessment 0-10) (Zoysia japonica; 3 g ai/ha, 2 weeks) | phytotoxicity (visual assessment 0-10) (Zoysia japonica; 3 g ai/ha, 4 weeks) | phytotoxicity (visual assessment 0-10) (Zoysia japonica; 6 g ai/ha, 2 weeks) | phytotoxicity (visual assessment 0-10) (Zoysia japonica; 6 g ai/ha, 4 weeks) | phytotoxicity (visual assessment 0-10) (Zoysia japonica; 12 g ai/ha, 2 weeks) | phytotoxicity (visual assessment 0-10) (Zoysia japonica; 12 g ai/ha, 4 weeks) | phytotoxicity (visual assessment 0-10) (Zoysia japonica; 25 g ai/ha, 2 weeks) | phytotoxicity (visual assessment 0-10) (Zoysia japonica; 25 g ai/ha, 4 weeks) | phytotoxicity (visual assessment 0-10) (Zoysia japonica; 50 g ai/ha, 2 weeks) | phytotoxicity (visual assessment 0-10) (Zoysia japonica; 50 g ai/ha, 4 weeks) | phytotoxicity (visual assessment 0-10) (Zoysia japonica; 100 g ai/ha, 2 weeks) | phytotoxicity (visual assessment 0-10) (Zoysia japonica; 100 g ai/ha, 4 weeks) | phytotoxicity (visual assessment 0-10) (Zoysia japonica; 200 g ai/ha, 2 weeks) | phytotoxicity (visual assessment 0-10) (Zoysia japonica; 200 g ai/ha, 4 weeks) | phytotoxicity (visual assessment 0-10) (Zoysia japonica; 400 g ai/ha, 2 weeks) | phytotoxicity (visual assessment 0-10) (Zoysia japonica; 400 g ai/ha, 4 weeks) | phytotoxicity (visual assessment 0-10) (Perennial rye grass; 3 g ai/ha, 2 weeks) | phytotoxicity (visual assessment 0-10) (Perennial rye grass; 3 g ai/ha, 4 weeks) | phytotoxicity (visual assessment 0-10) (Perennial rye grass; 6 g ai/ha, 2 weeks) | phytotoxicity (visual assessment 0-10) (Perennial rye grass; 6 g ai/ha, 4 weeks) | phytotoxicity (visual assessment 0-10) (Perennial rye grass; 12 g ai/ha, 2 weeks) | phytotoxicity (visual assessment 0-10) (Perennial rye grass; 12 g ai/ha, 4 weeks) | phytotoxicity (visual assessment 0-10) (Perennial rye grass; 25 g ai/ha, 2 weeks) | phytotoxicity (visual assessment 0-10) (Perennial rye grass; 25 g ai/ha, 4 weeks) | phytotoxicity (visual assessment 0-10) (Perennial rye grass; 50 g ai/ha, 2 weeks) | phytotoxicity (visual assessment 0-10) (Perennial rye grass; 50 g ai/ha, 4 weeks) | phytotoxicity (visual assessment 0-10) (Perennial rye grass; 100 g ai/ha, 2 weeks) | phytotoxicity (visual assessment 0-10) (Perennial rye grass; 100 g ai/ha, 4 weeks) | phytotoxicity (visual assessment 0-10) (Perennial rye grass; 200 g ai/ha, 2 weeks) | phytotoxicity (visual assessment 0-10) (Perennial rye grass; 200 g ai/ha, 4 weeks) | phytotoxicity (visual assessment 0-10) (Perennial rye grass; 400 g ai/ha, 4 weeks)
80: efficacy (0-100 scale) (Portulaca oleracea; Post-emergence, 100 g ai/ha) | efficacy (0-100 scale) (Cyperus amuricus; Post-emergence, 50 g ai/ha) | efficacy (0-100 scale) (Cyperus amuricus; Pre-emergence, 25 g ai/ha) | efficacy (0-100 scale) (Dandelion; Post-emergence, 12 g ai/ha) | efficacy (0-100 scale) (Dandelion; Pre-emergence, 25 g ai/ha)
60: efficacy (0-100 scale) (Portulaca oleracea; Post-emergence, 50 g ai/ha)
